System: stem cells isolated from rat cortex, differentiated with CNTF (astrocyte cultures)
Experiment: Expression profile of CNTF-differentiated rat cortex stem cells treated with VIP
Assay type: cell-based
Details: 5 μM VIP, one day
Protocol: VIP signature genes. Similar experiments were also performed in which cells were treated with vasoactive intestinal polypeptide (VIP), another drug useful for treating neuropsychiatric disorders. In more detail, stem cells were isolated and propagated from rat cortex. At passage 1, they were treated with 10 ng/ml ciliary neurotrophic factor (CNTF, available from R&D Systems, MN) for four days. 10 ng/ml of basic fibroblast growht factor (bFGF, R&D Systems, MN) was present in the medium on the first day of the differentiation regiment. […] Cells were then treated with 5 μM VIP (Sigma) for one day and harvested for expression profiling.
Signature genes were identified that changed expression when contacted with VIP compared to untreated cells. Each of these genes is listed below in Table 4, along with the measured expression ratio (ρ) and the GenBank Accession number for an exemplary cDNA sequence. The exemplary cDNA sequence for each gene is also provided here in the accompanying sequence listing. Accordingly, an appropriate sequence identifier is also specified in Table 4 for each listed gene.

Substance: vasoactive intestinal polypeptide [VIP]
- expression ratio σ: Cdk-inhibitor p57Kip2 (vs untreated, U22399 SEQ ID NO: 163): −1.8
- expression ratio σ: Rat EGF like protein (AF112153 SEQ ID NO: 164): 3.8
- expression ratio σ: Rat Interferon inducdible protein 16 (AF164040 SEQ ID NO: 168): 1.8
- expression ratio σ: similar to erythrocyte protein band 7.2 (BC003789 SEQ ID NO: 166): 2.2
- expression ratio σ: rat Dahl salt resistant strain clone etb (U02094 SEQ ID NO: 169): 1.8
- expression ratio σ: Rat tyrosine phosphatase like protein IA-2a (U40682 SEQ ID NO: 167): 2.0
- expression ratio σ: Rat interferon induced mRNA (X61381 SEQ ID NO: 165): 2.3

From US20030096264A1, “Multi-parameter high throughput screening assays (MPHTS)” (Psychiatric Genomics, Inc., priority 2001, published 2003)
